# Publication PMC7869707 (European Journal of Medicinal Chemistry, 2021)
# Key:
# 293T-ACE2 cells = assay: Cytotoxicity assay; type: cell-based; settings: MTT
# VSV-G PsV = type: cell-based
# SARS-CoV-2 S-trimer = SARS-CoV-2 S-trimer (Severe acute respiratory syndrome coronavirus 2, UniProt P0DTC2); assay: biochemical; type: binding
# SARS-CoV-2 S2 subunit = SARS-CoV-2 S2 subunit (Severe acute respiratory syndrome coronavirus 2, UniProt P0DTC2); type: binding
# Vero-E6 cells = assay: Cytotoxicity assay; type: cell-based; settings: MTT
# [1] = biological target: SARS-CoV-2 S binding to the ACE2 receptor (Severe acute respiratory syndrome coronavirus 2, UniProt P0DTC2)
# [2] = test system: SARS-CoV-2 S protein mediated membrane fusion of Vero-E6 cells; type: cell-based
# SARS-CoV-2 PsV = assay: microbe, parasite or virus in culture; type: cell-based; settings: for IC50: Severe acute respiratory syndrome coronavirus 2, 293T/ACE2, 48 h, read-out: IC50 (50% inhibitory concentration) against infection of 293T-ACE2 cells by SARS-CoV-2 PsV
smiles,measurement,setting,value
"C[C@@H]1O[C@@H](O[C@H]2[C@H](O[C@H]3CC[C@]4(C)[C@H]5CC=C6[C@@H]7CC(C)(C)CC[C@]7(C(=O)NCc7ccccc7)CC[C@@]6(C)[C@]5(C)CC[C@H]4C3(C)C)O[C@H](CO)[C@@H](O[C@@H]3O[C@@H](C)[C@H](O)[C@@H](O)[C@H]3O)[C@@H]2O)[C@H](O)[C@H](O)[C@H]1O [Compound 12f, N-{3β-O-[2,4-di-O-(a-L-rhamnopyranosyl)-β-D-glucopyranosyl]-olean-12-en-28-oyl}-benzylamine]",Cytotoxicity against 293T-ACE2 cells,293T-ACE2 cells,negligible cytotoxicity
same,Inhibition of VSV-G pseudoviral transduction,VSV-G PsV,no inhibition
same,Kd,SARS-CoV-2 S-trimer,0.94 µM
same,Fold higher affinity with S2 subunit in relation to S1 subunit,SARS-CoV-2 S2 subunit,more than 1000 fold
same,Cytotoxicity against Vero-E6 cells,Vero-E6 cells,negligible cytotoxicity
same,Effect on SARS-CoV-2 S binding to the ACE2 receptor,[1],no effect
same,Inhibition of membrane fusion mediated by SARS-CoV-2 S protein,[2],remarkably inhibit
"C[C@@H]1O[C@@H](O[C@H]2[C@H](O[C@H]3CC[C@]4(C)[C@H]5CC=C6[C@@H]7CC(C)(C)CC[C@]7(C(=O)NCc7cccs7)CC[C@@]6(C)[C@]5(C)CC[C@H]4C3(C)C)O[C@H](CO)[C@@H](O[C@@H]3O[C@@H](C)[C@H](O)[C@@H](O)[C@H]3O)[C@@H]2O)[C@H](O)[C@H](O)[C@H]1O [Compound 12i, N-{3β-O-[2,4-di-O-(a-L-rhamnopyranosyl)-β-D-glucopyranosyl]-olean-12-en-28-oyl}-2-thiophenemethylamine]",IC50,SARS-CoV-2 PsV,< 6 µM
same,Inhibition of VSV-G pseudoviral transduction,VSV-G PsV,no effect
"C[C@@H]1O[C@@H](O[C@H]2[C@H](O[C@H]3CC[C@]4(C)[C@H]5CC=C6[C@@H]7CC(C)(C)CC[C@]7(C(=O)NCc7ccco7)CC[C@@]6(C)[C@]5(C)CC[C@H]4C3(C)C)O[C@H](CO)[C@@H](O[C@@H]3O[C@@H](C)[C@H](O)[C@@H](O)[C@H]3O)[C@@H]2O)[C@H](O)[C@H](O)[C@H]1O [Compound 12h, N-{3β-O-[2,4-di-O-(a-L-rhamnopyranosyl)-β-D-glucopyranosyl]-olean-12-en-28-oyl}-2-furyl-methylamin]",Potency against SARS-CoV-2 PsV,SARS-CoV-2 PsV,lacked potency
"COc1ccccc1NC(=O)[C@]12CCC(C)(C)C[C@H]1C1=CC[C@@H]3[C@@]4(C)CC[C@H](O[C@@H]5O[C@H](CO)[C@@H](O[C@@H]6O[C@@H](C)[C@H](O)[C@@H](O)[C@H]6O)[C@H](O)[C@H]5O[C@@H]5O[C@@H](C)[C@H](O)[C@@H](O)[C@H]5O)C(C)(C)[C@@H]4CC[C@@]3(C)[C@]1(C)CC2 [Compound 12b, N-{3β-O-[2,4-di-O-(a-L-rhamnopyranosyl)-β-D-glucopyranosyl]-olean-12-en-28-oyl}-2-methoxyaniline]",IC50,SARS-CoV-2 PsV,< 6 µM
same,Inhibition of VSV-G pseudoviral transduction,VSV-G PsV,no effect
"C[C@@H]1O[C@@H](O[C@H]2[C@H](O[C@H]3CC[C@]4(C)[C@H]5CC=C6[C@@H]7CC(C)(C)CC[C@]7(C(=O)NCc7ccccc7F)CC[C@@]6(C)[C@]5(C)CC[C@H]4C3(C)C)O[C@H](CO)[C@@H](O[C@@H]3O[C@@H](C)[C@H](O)[C@@H](O)[C@H]3O)[C@@H]2O)[C@H](O)[C@H](O)[C@H]1O [Compound 12k, N-{3β-O-[2,4-di-O-(a-L-rhamnopyranosyl)-β-D-glucopyranosyl]-olean-12-en-28-oyl}-2-fluorobenzylamine]",IC50,SARS-CoV-2 PsV,< 6 µM
same,Inhibition of VSV-G pseudoviral transduction,VSV-G PsV,no effect
"C[C@@H]1O[C@@H](O[C@H]2[C@H](O[C@H]3CC[C@]4(C)[C@H]5CC=C6[C@@H]7CC(C)(C)CC[C@]7(C(=O)OCc7ccccc7)CC[C@@]6(C)[C@]5(C)CC[C@H]4C3(C)C)O[C@H](CO)[C@@H](O[C@@H]3O[C@@H](C)[C@H](O)[C@@H](O)[C@H]3O)[C@@H]2O)[C@H](O)[C@H](O)[C@H]1O [Compound 2, 3β-O-[2,4-di-O-(α-L-rhamnopyranosyl)-β-D-glucopyranosyl]-olean-12-en-28-oic acid benzyl ester]",Cytotoxicity against 293T-ACE2 cells,293T-ACE2 cells,moderate cytotoxicity
"C[C@@H]1O[C@@H](O[C@H]2[C@H](O[C@H]3CC[C@]4(C)[C@H]5CC=C6[C@@H]7CC(C)(C)CC[C@]7(C(=O)NCc7ccccn7)CC[C@@]6(C)[C@]5(C)CC[C@H]4C3(C)C)O[C@H](CO)[C@@H](O[C@@H]3O[C@@H](C)[C@H](O)[C@@H](O)[C@H]3O)[C@@H]2O)[C@H](O)[C@H](O)[C@H]1O [Compound 12g, N-{3β-O-[2,4-di-O-(a-L-rhamnopyranosyl)-β-D-glucopyranosyl]-olean-12-en-28-oyl}-2-pyridinemethanamine]",Potency against SARS-CoV-2 PsV,SARS-CoV-2 PsV,loss of potency
